The source of these data is BindingDB's records for doi:10.1016/j.bmcl.2003.12.023 (Pfizer, 2004).

This experiment deals with Mitogen-activated protein kinase 14 (Homo sapiens, UniProt Q16539). As to the kind of experiment: Enzyme Inhibition Assay.
Chain of Mitogen-activated protein kinase 14 (Q16539 whole entry): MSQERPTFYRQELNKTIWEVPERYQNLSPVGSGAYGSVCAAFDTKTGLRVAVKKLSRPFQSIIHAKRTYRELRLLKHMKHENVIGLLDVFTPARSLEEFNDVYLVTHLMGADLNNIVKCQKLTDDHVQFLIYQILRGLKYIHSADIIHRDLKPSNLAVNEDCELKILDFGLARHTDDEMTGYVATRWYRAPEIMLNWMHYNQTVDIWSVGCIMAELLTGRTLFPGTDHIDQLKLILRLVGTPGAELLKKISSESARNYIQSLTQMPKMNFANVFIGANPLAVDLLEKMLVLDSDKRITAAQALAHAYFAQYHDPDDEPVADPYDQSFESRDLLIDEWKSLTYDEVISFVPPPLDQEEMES

With `CCn1c(=O)n(CC)c2cc(-c3[nH]c(C4CCNCC4)nc3-c3cccc(C)c3)ccc21` [1,3-diethyl-5-[4-(3-methylphenyl)-2-(piperidin-4-yl)-1H-imidazol-5-yl]-2,3-dihydro-1H-1,3-benzodiazol-2-one], the IC50 – broadly, the point on the concentration scale where inhibition reaches its midpoint – came out at 70 nM.
